From US9808448B2, “Pharmaceutical compounds and use of same in cancer and tauopathies” (THE REGENTS OF THE UNIVERSITY OF MICHIGAN, priority 2013, dated 2017)
“And” between values parts separate entries of the source, which are not always exact repeats. Identical values can stand only once.

Columns and labels:
human Hsc70NBD = target: T1, human Hsc70NBD (Homo sapiens, UniProt P11142); assay: Biolayer interferometry (Octet Red), Hsc70NBD; assay type: binding; details: immobilized biotinylated Hsc70NBD
T1 construct: made in house
Experimental: Binding of MKT-077 analogs to immobilized Hsp70 was evaluated using a competitive ELISA. In this established assay, a biotinylated version of MKT-077 is bound to immobilized human Hsc70 (HSPA8) and potential competitors are tested for their ability to block the interaction. […] As further controls, the truncated compounds YM-02, YM-03, YM-04 and YM-07 were tested.
Biotinylated human Hsc70NBD or full length Hsp72 were first immobilized on super streptavidin biosensors (ForteBio, 18-5057) as follows: biosensors were soaked with MG buffer (100 mM Tris base, 20 mM KCl, 6 mM MgCl2, 0.01% Triton X-100, pH 7.4) for 10 min before moving them to wells either containing 200 μL […] biotinylated proteins or […] biocytin for 60 min. The free streptavidin sites were subsequently quenched with […] biocytin for 10 min. The biosensors were washed with MG buffer for 5 min prior to beginning the binding experiments. The association and disassociation steps were carried out in MG buffer with a constant 10% DMSO concentration. All steps were performed at room temperature and with 1000 rpm rotary shaking. […] The apparent affinities of YM-08 for Hsc70NBD and Hsp72 were calculated from both equilibrium measurements and global fits of the kon and koff values, yielding similar values.

[1] = target: yeast Hsp70 (Ssa1p) and Hlj1p (Saccharomyces cerevisiae, UniProt P10591); assay: Single turnover ATPase assay; assay type: biochemical
Experimental: Next, the effect of chaperone functions by binding of YM-08 to Hsp70 was investigated. […] This profile is shared with other allosteric Hsp70 inhibitors. As another test of chaperone function, the effects of the compounds on the binding of Hsp70 to a misfolded protein were measured. In previous work, MKT-077 stabilized the interaction between prokaryotic Hsp70 (DnaK) and denatured luciferase. Briefly, this assay involves immobilizing unfolded luciferase in microtiter plates and measuring binding to DnaK. […] To explore whether YM-08 might also enhance binding of Hsp70 to a more physiologically relevant substrate, binding of tau to immobilized human Hsc70 was measured.
Single turnover ATPase assays were performed as previously described in, e.g., Fewell, et al., J. Biol. Chem., 279:51131-51140 (2004), and Chiang, et al., Bioorg. Med. Chem., 17:1527-1533 (2009). Briefly, the yeast Hsp70, Ssa1p (about 0.2 μM), was prebound to α-[32P]ATP. The hydrolysis of ATP in the presence or absence of an equimolar amount of Hlj1 was measured by monitoring the generation of α-[32P]ADP by thin layer chromatography (TLC).

[2] = test system: stress inducible Hsp72 (HSPA1); assay: Stress response in treated HeLaC3 cell lysates; assay type: cell-based, human
[3] = Initial pharmacokinetics and biodistribution in CD1 mice; assay type: in vivo, mouse; details: i.v., YM-01 20 mg/kg saline, YM-08 10 mg/kg 10% DMSO/saline
Experimental: (A) Initial pharmacokinetics and biodistribution of YM-01 and YM-08. Compounds were suspended in buffered saline (YM-01) or 10% DMSO/saline (YM-08) and injected at 20 and 10 mg/kg, respectively. YM-08 was not soluble in saline or 10% DMSO/saline at 20 mg/kg. The levels of YM-08 in the brain at 1 hr after injection could not be accurately determined because its value was outside the calibration curve. […] Results are average from data acquired from three female mice. (C) YM-08 maintains a B/P ratio of nearly 0.25 for 18 hrs.
(§1) The initial pharmacokinetics (PK) of YM-01 and YM-08 were tested in CD1 mice. […] After a single 6.6 mg/kg dose delivered i.v., the peak brain concentration of YM-08 was 4 μg/g (FIG. 7B) and the ratio in the brain:plasma (B/P) ratio was approximately 0.25 for 18 hrs (FIG. 7C). […] It is not yet clear how much tau levels need to be reduced to achieve therapeutic effects in disease models, but the area-under-the-curve (AUCinf) for YM-08 in the brain was 0.26 μg·hr/g and the AUCinf in plasma was 13.6 μg·hr/mL.

[4] = Pharmacokinetics of YM-08 in plasma and brain, CD1 mice; assay type: in vivo, mouse
Experimental: as §1
Female CD-1 mice (25-30 g in body weight) were purchased from Charles River Laboratories (Wilmington, Mass.). Mice were treated with 6 mg/kg YM-08 through the tail-vein injection. The plasma and brain were collected at 0.016, 0.08, 0.16, 0.25, 0.5, 1, 2, 4, 6, 13, 18, 24 and 48 h after drug administration. Whole blood samples were drawn through the cardiac puncture using a heparinized syringe with a 22 gauge needle, followed by centrifugation at 3,000 g for 10 min at 4° C. to obtain plasma. Collected tissues were washed with PBS, immediately frozen using liquid nitrogen, and stored at −80° C. until further analysis. Tissue homogenates were prepared by adding PBS (1:5 w/v, homogenate/PBS) and homogenization for 3 min. Compound was extracted from 100 μL of sample by adding 300 μL of acetonitrile containing 50 ng/mL IS, followed by vortexing for 3 min. The supernatant was collected and subjected to LC-MS/MS analysis.
The separation of YM-08 and internal standard was performed using Agilent 1200 HPLC system (Agilent Technologies, Santa Clara, Calif.) and Zobarx SB-C18 column (2.1×50 mm, 3.5 μm) (Agilent Technologies). […] The compounds were eluted with an fixed gradient of 20% solvent A and 80% of solvent B. Solvent A consisted of 0.1% (v/v) glacial acetic acid in water and solvent B consisted of 0.1% (v/v) glacial acetic acid in acetonitrile. After injecting 10 μl of samples into HPLC system, the elution was performed over 2 min at a flow rate of 0.4 ml/min. The YM-08 and MKT-077 eluents were detected using QTRAP 3200 mass spectrometer (Applied Biosystems/MDS Sciex, Foster City, Calif.) equipped with an electrospray ionization source (ESI). The temperature of ESI was set at 650° C. and curtain gas, gas 1, and gas 2 were set to 30, 50, and 50 units, respectively. A positive voltage at 5500 V was applied through ESI to convert the eluents to ions in the form of MH+. The ions were detected using a MRM mode. The ion transitions from the precursor ion (m/z 368) to the fragment ion (m/z=222) and from the precursor ion (m/z 396) to the fragment ion (m/z=175) were used to detect YM-08 and IS, respectively.

[5] = t1/2 in tau activity screen table; assay type: in vitro ADME; details: liver microsomes; matrix not stated

yeast Hsp70 (Ssa1p) and Hlj1p, sequence (P10591 whole entry): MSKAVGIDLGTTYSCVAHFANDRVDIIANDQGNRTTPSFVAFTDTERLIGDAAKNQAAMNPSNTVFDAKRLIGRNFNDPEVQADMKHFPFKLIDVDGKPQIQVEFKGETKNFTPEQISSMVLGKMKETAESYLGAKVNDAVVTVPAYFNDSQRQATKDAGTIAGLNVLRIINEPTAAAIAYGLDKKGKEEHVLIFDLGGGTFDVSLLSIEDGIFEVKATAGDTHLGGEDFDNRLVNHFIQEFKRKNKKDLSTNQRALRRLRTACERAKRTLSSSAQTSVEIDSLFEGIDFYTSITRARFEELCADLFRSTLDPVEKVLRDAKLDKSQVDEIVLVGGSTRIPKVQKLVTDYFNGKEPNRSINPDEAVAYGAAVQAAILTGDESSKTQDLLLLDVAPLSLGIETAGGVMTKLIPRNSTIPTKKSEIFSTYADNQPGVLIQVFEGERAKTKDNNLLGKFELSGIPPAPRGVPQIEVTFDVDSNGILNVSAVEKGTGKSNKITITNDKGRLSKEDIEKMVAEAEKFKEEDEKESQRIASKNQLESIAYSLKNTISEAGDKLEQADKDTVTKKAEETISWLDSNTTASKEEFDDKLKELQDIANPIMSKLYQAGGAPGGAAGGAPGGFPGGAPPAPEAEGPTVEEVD
T1 sequence (P11142 2-386 limits assumed): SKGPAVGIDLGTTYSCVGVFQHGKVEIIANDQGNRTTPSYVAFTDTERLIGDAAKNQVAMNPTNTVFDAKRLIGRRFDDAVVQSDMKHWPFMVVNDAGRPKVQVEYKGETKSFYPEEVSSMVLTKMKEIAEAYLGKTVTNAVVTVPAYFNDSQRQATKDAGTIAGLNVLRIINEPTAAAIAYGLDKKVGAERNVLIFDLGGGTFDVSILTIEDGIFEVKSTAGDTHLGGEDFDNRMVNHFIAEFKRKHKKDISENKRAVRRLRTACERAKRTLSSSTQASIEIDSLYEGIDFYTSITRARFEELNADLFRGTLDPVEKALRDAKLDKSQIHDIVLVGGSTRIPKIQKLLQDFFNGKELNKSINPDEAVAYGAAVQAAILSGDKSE

CCn1c(=O)/c(=C2\Sc3ccccc3N2C)s/c1=C\c1ccccn1 [YM-08, (2Z,5E)-3-ethyl-5-(3-methylbenzo[d]thiazol-2(3H)-ylidene)-2-(pyridin-2-ylmethylene)thiazolidin-4-one]
Kd (human Hsc70NBD): ~2.3 µM and ~4 µM | ATP turnover, Hlj1-stimulated ATPase activity ([1]; Ssa1 plus Hlj1): partially inhibited | intrinsic ATPase activity of Ssa1 ([1]; without Hlj1): minimal effect | stress response (Hsp72 levels) [2]: did not induce a stress response | kidney distribution ([3]; 0.16 and 1 hrs): reduced retention in the kidney | brain penetration ([3]; 0.16 hrs): abundant in the brain | AUCinf in the brain ([4]; 6.6 mg/kg i.v.): 0.26 µg·h/g | half-life ([4]; female, CD-1, mouse, brain, iv, 6.6 mg/kg i.v., read-out: terminal halftime in the brain (t1/2; brain) (converted)): 6.8 h | Kp at 18 h ([4]; female, CD-1, mouse, brain/plasma, iv, 6.6 mg/kg, 6.6 mg/kg i.v., for 18 hrs, read-out: brain:plasma (B/P) ratio): ~0.25 | AUC(0-inf) ([4]; female, CD-1, mouse, plasma, iv, 6.6 mg/kg i.v., read-out: AUCinf in plasma): 13600 ng·h/mL | half-life ([4]; female, CD-1, mouse, plasma, iv, 6.6 mg/kg i.v., read-out: t1/2, plasma (converted)): 9.8 h | peak brain concentration ([4]; single 6.6 mg/kg i.v., Cremophor mixture): 4 µg/g | half-life [5]: < 3 min
